A short description of experiment [1]: Peroxynitrite assay (SIN-1, PTIO spin trap, ESR). The class given is biochemical. As to conditions: mean of 6 independent assays. An excerpt: (§1) The superoxide anion has been measured by a chemiluminescent assay based on the hypoxanthine (HPX)/xanthine oxidase (XOD) reaction using the Lumimax Superoxide Anion Detection Kit (Stratagene, La Jolla, Calif., USA) and following the manufacturer's instructions. Hydroxyl radical scavenger activity has been measured by means of the Fenton reaction for the production of hydroxyl radicals and chemiluminescent dosage (using a Victor^3 chemiluminometer, Wallac, Finland) with luminol. Peroxynitrite ions have been determined by means of dosage with a spontaneous generator of peroxynitrites (3-morpholinosidnonimine hydrochloride; SIN-1) and a stable reagent for the nitroxyl ions (2-(4-carboxyphenyl)-4,4,5,5-tetramethylimidazoline-1-oxyl-3-oxide potassium salt PTIO spin trap) then dosed by means of electron spin resonance (ESR) using a. Nippon Denshi JES-FR30.
(§2) Extract 1 and Extract 2 listed in Table are derived from Syringa vulgaris cell cultures. […] The results are expressed as the concentration inhibiting 50% of activity (IC50). The values reported are the means of 6 independent assays.

Experiment [2] in a line: Superoxide anion chemiluminescent assay (hypoxanthine/xanthine oxidase). The class given is biochemical. To be noted: mean of 6 independent assays.
Description: as §1, §2

A short description of experiment [3]: Hydroxyl radical scavenger activity (Fenton reaction, luminol chemiluminescence). The class given is biochemical. To be noted: mean of 6 independent assays.
Description: as §1, with “Syringa vulgaris Extracts 1 and 2, prepared as described in examples 1 and 2, have been used to assess in vitro antioxidant action with specific oxygen radical generating systems such as the superoxide anion (O2^−), the hydroxyl radical (HO), the peroxynitrite radical (ONOO^−) and the inhibition of lipid peroxidation. The” for “The”, “JES-FR30. […].” for “JES-FR30.”
Extract 1 and Extract 2 listed in Table are derived from Syringa vulgaris cell cultures. In said extracts, verbascoside is present at 0.82% and 35% by weight respectively. […]

The test system of the next experiment is A549 cells. As to the kind of experiment: Oxidative stress (ROS, DCF fluorescence) in A549 cell cultures. The class given is cell-based, human. To be noted: 1 mM, A549, galactose oxidative stress. Here is the method:
10×10^5 A549 cells (ATCC-CCL195) have been seeded into wells with 3 ml of DMEM/medium (HAM'S F12K) with 10% FCS and incubated at 37° C. in a 5% CO2, water vapour saturated atmosphere. After 24 hours the culture medium is replaced by medium supplemented with 5.55 mM galactose, which is left in contact with the cells for 20 hours. The medium is once again replaced with medium containing galactose in the presence or absence of the test compound. After 5 hours, quantitative measurement of the ROSs is performed by washing the cells with phosphate buffer and then incubating them with 30 μM DCF-DA in buffer solution. At the end of a 15 minute incubation, excess DCF-DA is removed from the cells by washing, prior to measuring the fluorescence emitted.
Antioxidant activity measurements are performed using a (Hitachi F3010) spectrophotometer with excitation at 488 nm and measuring emission at 525 nm, and values are expressed in pmoles, by extrapolation from the calibration curve constructed using known quantities of DCF, in relation to total cellular protein. Values are thus expressed in % ages with respect to the ROS, content of the cells not subjected to oxidative stress, to which are assigned a value of 100.
Syringa vulgaris Extracts 1 and 2 and ascorbic acid have been dissolved in phosphate buffer.

Experiment [4] deals with tyrosinase. The experiment can be described thus: Tyrosinase inhibition, oxidation of L-tyrosine to L-DOPA. The class given is biochemical. To be noted: 250 μg/ml. An excerpt: (§3) The enzyme tyrosinase catalyses the reactions leading to melanin biosynthesis from tyrosine. […] Substances inhibiting tyrosinase activity produce clearing/bleaching effect on the skin, since they block melanin synthesis. The method used to determine the inhibition of tyrosinase activity in the oxidation reaction of L-tyrosine to L-DOPA is that described in Kim et al. […] Biol. Pharm. Bull. 28(2), 323-327, 2005). The method applied for determination of the inhibition of tyrosinase activity in the conversion of L-DOPA to DOPAquinone is that described in Masamoto et al. (Mushroom tyrosinase inhibitory activity of esculetin isolated from seeds of Euphorbia lathyris L. Biosci. Biotechnol. Biochem., 67(3), 631-634, 2003).

In experiment [5] the test system is tyrosinase. As to the kind of experiment: Tyrosinase inhibition, conversion of L-DOPA to DOPAquinone. Type of experiment: biochemical, Mushroom. As to conditions: 100 μg/ml.
Description: as §3

SMILES strings stand for the structures.

The source of these data is patent publication US10456434B2, “Extracts obtained from cell line cultures from plants belonging to the Oleaceae family (e.g. Syringa vulgaris), their preparation and use” (CRODA ITALIANA S. P. A., priority 2005, dated 2019).

Take `O=C1c2c(O)cccc2C([C@@H]2O[C@H](CO)[C@@H](O)[C@H](O)[C@H]2O)c2cc(CO)cc(O)c21` (some centres unmarked) [Aloin, reference compound]: in experiment [1], the “Peroxynitrite radical (IC50)” value was 12.3 µg/mL. Besides, the “Superoxide radical (IC50)” value in experiment [2] is 7.6 µg/mL. For the same molecule, in experiment [3], the “Hydroxyl radial (IC50)” value is 2.9 µg/mL.
Consider `O=C1O[C@H]([C@@H](O)CO)C(O)=C1O` [Ascorbic acid, reference compound], for which the “ROS level (%)” value with A549 cells is 62.91 ± 3.82 %.
Regarding `O=c1cc(CO)occ1O` [Kojic acid, reference compound], the “Test L-tyrosine-DOPA inhibitory activity (%)” value with tyrosinase [4] amounted to 94.1%. Besides, the “Test LDOPA-DOPAquinone inhibitory activity (%)” value in the experiment with tyrosinase [5] is 35%.
On to `Oc1cccc(O)c1` [Resorcinol, reference compound], for which the “Test L-tyrosine-DOPA inhibitory activity (%)” value in the experiment on tyrosinase [4] is 56.9%. In addition, in the experiment on tyrosinase [5], the “Test LDOPA-DOPAquinone inhibitory activity (%)” value was found to be 0%.
